Reference: patent publication US5395922A, “Yeast processing system” (Novo Nordisk A/S, priority 1989, dated 1995)

Key:
Format in all cases: biochemical
trypsin [1] = assay: Trypsin inhibitor specific activity, spectrophotometric assay (method of Kassel); settings: comparison with native aprotinin
Protocol: Yeast strain KFN-837 was grown on YPD medium (1% yeast extract, 2% peptone (from Difco Laboratories), and 6% glucose). A 200 ml culture of the strain was shaken at 250 rpm at 30° C. for 3 days to an O.D. at 600 nm of 20 (Dry yeast biomass 18.8 g/liter). After centrifugation the supernatant was analyzed by FPLC ion exchange chromatography. The yeast supernatant was filtered through a 0.22 μm Millex GV filter unit and 1 ml was applied on a MonoS cation exchange column (0.5×5 cm) equilibrated with 20 mM Bicine, pH=8.7. After wash with equilibration buffer the column was eluted with a linear NaCl gradient (0-1M) in equilibration buffer. Trypsin inhibitor activity was quantified in the eluted fractions by spectrophotometric assay (Kassel, B., Methods Enzymol. 19 (1970), 844-852) and furthermore by integration of absorption at 280 nm from [formula] The yield was […] of Glu-Leu-aprotinin(1-58).
The trypsin and plasmin inhibition by Glu-Leu-aprotinin (1-58) in terms of titration curves determined as described below were indistinguishable from that of bovine pancreatic aprotinin (Aprotinin Novo). After incubation of the enzyme with aprotinin or its analogues for 30 minutes, 0.6 mM S 2251 (KabiVitrum) was added and the activity measured as the rate of nitroaniline production. The activity as a function of aprotinin concentration is plotted in FIG. 5A and 5B. […]

trypsin [2] = assay: Trypsin inhibition titration curves (S 2251 substrate, rate of nitroaniline production); settings: 30 minutes incubation of enzyme with inhibitor, 0.6 mM S 2251; FIG. 5A
Protocol: (§1) The trypsin and plasmin inhibition by Glu-Leu-aprotinin (1-58) in terms of titration curves determined as described below were indistinguishable from that of bovine pancreatic aprotinin (Aprotinin Novo). After incubation of the enzyme with aprotinin or its analogues for 30 minutes, 0.6 mM S 2251 (KabiVitrum) was added and the activity measured as the rate of nitroaniline production. The activity as a function of aprotinin concentration is plotted in FIG. 5A and 5B. Complete inhibition of both enzymes with all three inhibitors was observed.

plasmin = plasmin (Homo sapiens, UniProt P00747); assay: Plasmin inhibition titration curves (S 2251 substrate, rate of nitroaniline production); settings: 30 minutes incubation of enzyme with inhibitor, 0.6 mM S 2251; FIG. 5B
Sequence of plasmin (P00747 581-810 limits assumed, species assumed): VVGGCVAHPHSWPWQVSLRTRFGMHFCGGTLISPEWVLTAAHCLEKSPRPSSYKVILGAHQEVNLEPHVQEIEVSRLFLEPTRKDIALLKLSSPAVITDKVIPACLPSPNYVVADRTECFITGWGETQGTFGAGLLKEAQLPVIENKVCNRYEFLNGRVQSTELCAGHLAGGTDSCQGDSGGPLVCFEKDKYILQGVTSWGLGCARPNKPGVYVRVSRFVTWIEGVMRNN
Sequence of plasmin (P00747 97-580 partner limits assumed, species assumed): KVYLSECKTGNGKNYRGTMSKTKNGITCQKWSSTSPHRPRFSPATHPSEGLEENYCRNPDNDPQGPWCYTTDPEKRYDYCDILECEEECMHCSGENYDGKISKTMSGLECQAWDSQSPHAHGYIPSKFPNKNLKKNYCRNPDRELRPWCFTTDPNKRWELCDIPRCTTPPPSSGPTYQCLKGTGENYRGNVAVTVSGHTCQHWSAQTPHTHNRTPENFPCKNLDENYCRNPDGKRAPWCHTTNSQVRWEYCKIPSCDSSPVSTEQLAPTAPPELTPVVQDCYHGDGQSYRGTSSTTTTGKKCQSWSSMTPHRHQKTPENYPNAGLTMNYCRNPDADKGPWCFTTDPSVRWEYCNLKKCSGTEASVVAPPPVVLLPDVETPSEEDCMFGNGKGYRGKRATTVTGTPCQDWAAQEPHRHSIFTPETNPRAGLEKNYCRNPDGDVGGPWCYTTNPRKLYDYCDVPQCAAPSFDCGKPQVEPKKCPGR
Protocol: as §1

Row | Substance | specific (inhibitory) activity against trypsin compared with native / bovine pancreatic aprotinin (trypsin [1]) | trypsin inhibition in terms of titration curves, compared with bovine pancreatic aprotinin (Aprotinin Novo) (trypsin [2]) | plasmin inhibition in terms of titration curves, compared with bovine pancreatic aprotinin (Aprotinin Novo) (plasmin)
1 | aprotinin(1-58) | indistinguishable |  | 
2 | Glu-Leu-Asp-Leu-aprotinin(1-58) |  | indistinguishable | indistinguishable
3 | Glu-Leu-aprotinin(1-58) | identical within the experimental error | indistinguishable | indistinguishable
